Measured values as given in PubChem BioAssay (NCI).
“And” between values parts separate entries of the source, which are not always exact repeats. Equal values may be shown once.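 Cells were grown in 96-well plates and exposed to each compound for 48 hours at five concentrations; endpoints were interpolated linearly between bracketing concentrations, or set to the highest concentration if not reached. Abbreviation: GI50, concentration required for 50% inhibition of growth. At the TGI there is no net growth.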

What was measured:
Test in all cases: NCI tumour cell line growth inhibition, 48 h
NCI-H460 lung = system: NCI-H460 lung
DMS 273 small cell lung = system: DMS 273 small cell lung
XF 498 CNS = system: XF 498 CNS
KM20L2 colon = system: KM20L2 colon
M19-MEL melanoma = system: M19-MEL melanoma
DMS 114 small cell lung = system: DMS 114 small cell lung
SNB-78 CNS = system: SNB-78 CNS
HOP-18 NSCLC = system: HOP-18 NSCLC
LXFL 529 NSCLC = system: LXFL 529 NSCLC
DLD-1 colon = system: DLD-1 colon
P388 leukemia = system: P388 leukemia
SN12K1 renal = system: SN12K1 renal
P388/ADR leukemia = system: P388/ADR leukemia
RXF-631 renal = system: RXF-631 renal

Row | Compound | TGI (NCI-H460 lung) | further results
1 | CC(NC(=O)N(C)C)NC(=O)N(C)C | > 10 µM | 
2 | CC(=O)OC1C(COC(=O)c2ccccc2)OC(Nc2ncc(-c3ccc(Br)cc3)s2)C(OC(=O)c2ccccc2)C1OC(=O)c1ccccc1 (stereo unspecified) | > 100 µM | 
3 | O=c1cc(-c2cc(O)c(O)c(-c3c(O)cc4oc(-c5ccc(O)c(O)c5)cc(=O)c4c3O)c2)oc2cc(O)cc(O)c12 | > 25 µM | 
4 | O=C1c2ccccc2NC(=S)[C@@H]2CCCN12 | > 100 µM | 
5 | CO[C@@H]1O[C@H](C(=O)c2ccccc2)[C@H]2OC(C)(C)O[C@@H]12 | > 100 µM | 
6 | N#Cc1nc(C2CCC2)oc1N | > 100 µM | 
7 | COc1cc2ccc1OCc1cccc(n1)COc1ccc(cc1OC)C=Nc1ccc(cc1)N=C2 | > 100 µM | 
8 | COC1=C(C)C(=O)c2c(c(COC(N)=O)c3n2CC(OC(C)=O)C3OC(C)=O)C1=O (stereo unspecified) | 0.235 µM | 
9 | C[C@]12CC[C@@H]3c4cc(I)c(O)cc4CC[C@H]3[C@@H]1CC[C@@H]2O | 16 µM | 
10 | COc1ccc(-c2cc(-c3ccccc3)[nH]c(=S)c2C#N)cc1 | 81.7 µM | 
11 | O=c1[nH]nc(Cc2ccccc2)n1/N=C/c1ccncc1 | > 100 µM | 
12 | COC(=O)[C@H](Cc1ccccc1)NC(=O)CCCCCCC(=O)NO | 86 µM | 
13 | CO[C@]12C[C@H](CNC(=O)c3ccc[nH]3)O[C@H]1NC(=O)N2 | > 100 µM | 
14 | CCCCn1c(-c2ccc([N+](=O)[O-])cc2)cs/c1=N/N=C1\C(=O)Nc2ccc(Br)cc21 | 38.3 µM | 
15 | COC(=O)/C(C#N)=C(/NCCN)Nc1ccccc1 | > 100 µM | 
16 | Nc1nn2c(=O)c3ccccc3nc2s1 | > 100 µM | 
17 | Cc1ccc(/C=C2\Cc3c(C)cc(C)cc3C2=O)c(C(=O)O)c1 | > 100 µM | 
18 | COCCOCCOC1=CC(=O)c2c(O)ccc(O)c2C1=O | 3.47 µM | 
19 | CN(C)CC1CCC(CN(C)C)C1=O (stereo unspecified) | 45.6 µM | TGI (DMS 273 small cell lung): 36.7 µM; TGI (XF 498 CNS): 10.3 µM; TGI (KM20L2 colon): 38 µM; TGI (M19-MEL melanoma): 7.96 µM; TGI (DMS 114 small cell lung): 11.8 µM; TGI (SNB-78 CNS): 17.2 µM; TGI (HOP-18 NSCLC): 33.2 µM; TGI (LXFL 529 NSCLC): 2.96 µM
20 | CC(=O)OCc1c(O)c2c(c(O)c1COC(C)=O)C(=O)C=CC2=O |  | TGI (DMS 273 small cell lung): 34.3 µM; TGI (KM20L2 colon): 32.7 µM; TGI (M19-MEL melanoma): 3.54 µM; TGI (DMS 114 small cell lung): 25.4 µM; TGI (SNB-78 CNS): 28 µM; TGI (HOP-18 NSCLC): 35.8 µM; TGI (LXFL 529 NSCLC): 10.4 µM
21 | N#Cc1c(-c2ccccc2)cc(-c2ccc(Cl)cc2)[nH]c1=S | > 100 µM | 
22 | CCCCCCCCCc1nn2c(Cc3ccccc3)nnc2s1 | 39.2 µM | 
23 | O=C1CSC2=NC3=C(COC/C3=C\c3ccc(Br)cc3)C(c3ccc(Br)cc3)N12 (stereo unspecified) | > 100 µM | 
24 | CSc1n[nH]c(N)c1C(=O)Nc1ccccc1 | > 100 µM | 

Row | Compound | TGI (NCI-H460 lung) | further results
25 | CCOP(=O)(/C=C\n1ccc(N)nc1=O)OCC | > 100 µM | 
26 | CN(C)CCNC(=O)c1cccc2nc(-c3ccccc3)oc12 | > 100 µM | TGI (DLD-1 colon): > 100 µM; TGI (XF 498 CNS): > 91.9 µM; TGI (P388 leukemia): 20.3 µM; TGI (KM20L2 colon): > 100 µM; TGI (SN12K1 renal): > 75.5 µM; TGI (M19-MEL melanoma): 99.5 µM; TGI (DMS 114 small cell lung): > 100 µM; TGI (SNB-78 CNS): > 100 µM; TGI (HOP-18 NSCLC): > 100 µM; TGI (P388/ADR leukemia): > 64.3 µM
27 | COc1ccc(CN2C3CC2CN(c2ccc(-c4cc(OCC(C)(C)O)cn5ncc(C#N)c45)cn2)C3)cn1 | > 100 µM | GI50 (NCI-H460 lung): 15.9 µM
28 | COc1cc(/C=C/C=C2\CC/C(=C\C=C\c3ccc(O)c(OC)c3)C2=O)ccc1O | > 100 µM | 
29 | C#CCN(Cc1ccc2nc(OC)c(OC)nc2c1)c1cc(OC)c(OC)c(OC)c1 | > 87.2 µM | 
30 | COC1CC(OC2CCC3(C)C(=CCC4C3C(OC(C)=O)C(OC(=O)CC(C)C)C3(C)C(C(C)=O)CCC43O)C2)OC(C)C1OC1CC(OC)C(OC2CC(OC)C(OC3OC(C)C(OC4OC(CO)C(O)C(O)C4O)C(OC)C3O)C(C)O2)C(C)O1 (stereo unspecified) | > 7.5 µM | 
31 | COc1cc2c(cc1OC)-c1cc3ccccc3c(=O)n1CC2 | 67.5 µM | 
32 | COc1nc(C#CC(C)(C)C)nc(OC)n1 | > 100 µM | 
33 | CCOC(=O)C1CCC(=O)N1C(=O)c1ccccc1 (stereo unspecified) | > 100 µM | 
34 | CCON1CC(C(=O)OC)=C(O)C1=O | > 100 µM | 
35 | CC(=O)OC1CCC2C3CCc4c(C)ccc(OS(=O)(=O)c5ccccc5)c4C3CCC12C (stereo unspecified) | > 100 µM | 
36 | C1=C\SS/C=C\SS/1 | 80 µM | 
37 | CCOC(=O)c1nnsc1NN | > 100 µM | 
38 | CCOC(=O)c1nc2cc(C(F)(F)F)ccc2nc1Nc1ccc(C(=O)NC(C(=O)OCC)C(=O)OCC)cc1 | > 100 µM | 
39 | CCCSc1nc(-c2ccc(OC)cc2)c(C#N)c(=O)n1C1OC(COC(C)=O)C(OC(C)=O)C(OC(C)=O)C1OC(C)=O (stereo unspecified) | > 100 µM | TGI (KM20L2 colon): > 100 µM; TGI (M19-MEL melanoma): > 100 µM; TGI (DMS 114 small cell lung): > 100 µM; TGI (SNB-78 CNS): > 100 µM; TGI (LXFL 529 NSCLC): > 100 µM
40 | Oc1[nH]c2ccccc2c1N=NC(=S)Nc1ccc(Cl)cc1 | > 100 µM | 
41 | C[C@H]1SC(c2ccc(Cl)cc2Cl)N(NC(=O)c2ccncc2)C1=O (stereo partly specified) | > 100 µM | 
42 | CC(=O)c1ccc2c(c1)CC1(C2)Cc2ccccc2C1=O (stereo unspecified) | > 100 µM | 
43 | CC1(C)[C@H]2CC[C@@]13C(=O)N1C(=O)O[C@@H]([C@H]1Cl)C(Cl)(COCc1ccccc1)C(=O)OCCO[C@H]3C2 (stereo partly specified) | > 100 µM | 
44 | COc1ccc(C2c3cc4c(cc3OC(N3CCOCC3)C2C)OCO4)c(OC)c1OC (stereo unspecified) | 51.3 µM | 
45 | COc1ccc(N(C(=O)Nc2ccc(Cl)c(Cl)c2)C2c3cccn3C(=O)N2c2ccc(Cl)c(Cl)c2)cc1 (stereo unspecified) | > 100 µM | 
46 | CCC(C(=O)C(=O)OC)P1(=O)OC(C)(C)CN1C(C)(C)C (stereo unspecified) | > 100 µM | 
47 | COc1ccc(COCC[C@H](C)OC2OC(CO[Si](C)(C)C(C)(C)C)C(OC(=O)CCCN=[N+]=[N-])C(OC(=O)CCCN=[N+]=[N-])C2OC(=O)CCCN=[N+]=[N-])cc1 (stereo partly specified) | > 100 µM | 
48 | COc1ccc(NC(=S)NC(=O)c2ccc3c(c2)Sc2ccccc2O3)c([N+](=O)[O-])c1 | > 100 µM | 

Row | Compound | TGI (NCI-H460 lung) | further results
49 | CC12CCCC3(CC(=O)C(C)(C)C3C(=O)C1)C2 (stereo unspecified) | > 100 µM | 
50 | OCc1ccc2c(c1)CC1(Cc3ccc(/C=N/O)cc3C1)C2 (stereo unspecified) | 18.9 µM | 
51 | CC(C)OC(=O)OCSc1ccccc1N=Cc1cccc([N+](=O)[O-])c1 | > 10 µM | 
52 | O=c1[nH]c(=O)n(C2CC(O)C(CO)O2)cc1OCc1ccccc1 (stereo unspecified) | > 100 µM | 
53 | CN(C)CCC(=O)/C=C\c1ccccc1 | 37.5 µM | TGI (DMS 273 small cell lung): 33.7 µM; TGI (RXF-631 renal): 60.4 µM; TGI (DLD-1 colon): 31.8 µM; TGI (XF 498 CNS): 28.4 µM; TGI (KM20L2 colon): 86.1 µM; TGI (M19-MEL melanoma): 37.4 µM; TGI (DMS 114 small cell lung): 33.7 µM; TGI (SNB-78 CNS): 37.6 µM; TGI (HOP-18 NSCLC): 43.5 µM; TGI (LXFL 529 NSCLC): 26.9 µM
54 | c1c2c(cc(-n3nnc4c3CCCCCC4)c1-n1nnc3c1CCCCCC3)CCCCCC2 | 18.9 µM | TGI (DMS 273 small cell lung): 12.3 µM; TGI (RXF-631 renal): 34.8 µM; TGI (XF 498 CNS): 9.62 µM; TGI (M19-MEL melanoma): 25.5 µM; TGI (SNB-78 CNS): 39.4 µM
55 | CCOC(=O)C#Cc1ccccc1 | > 100 µM | 
56 | CCOC(=O)/C=C(\C(=O)OCC)n1ccc(=O)n(Cc2cn(COCCOC(C)=O)nn2)c1=O | > 52.5 µM | 
57 | C=C(CN(C)C)C(=O)c1ccccc1[N+](=O)[O-] | 59.3 µM and 45.1 µM | TGI (DMS 273 small cell lung): 33.7 µM; TGI (RXF-631 renal): 34.4 µM; TGI (DLD-1 colon): 29.5 µM; TGI (XF 498 CNS): 31.2 µM; TGI (KM20L2 colon): > 54.2 µM; TGI (M19-MEL melanoma): 32 µM; TGI (DMS 114 small cell lung): 39.1 µM; TGI (SNB-78 CNS): 71.4 µM; TGI (HOP-18 NSCLC): 32.7 µM; TGI (LXFL 529 NSCLC): 30.3 µM; GI50 (NCI-H460 lung): 19.6 µM
58 | S=c1cc(-c2ccc3c(c2)OCO3)s[nH]1 | > 100 µM | 
59 | CC(=O)c1cnc2oc3ccc(O)cc3c2c1-c1ccccc1 | > 100 µM | 
60 | CCOC(=O)c1cn2c(n1)sc1cc(Cl)cc(Cl)c12 | > 100 µM | 
61 | COc1cc2c(c(O)c1OC)C(=O)C(Cc1ccc(O)cc1)CO2 (stereo unspecified) | > 100 µM | 
62 | CNC(=O)CCCNC(=O)CCCC(=O)N(C)C | > 100 µM | 
63 | NC(=O)N/N=C1\CC2C3CC4C2C4C13 (stereo unspecified) | > 100 µM | 
64 | C[n+]1c(-c2ccc(/C=C/C=N\NC(=O)c3ccc(C(=O)N/N=C\C=C\c4ccc(-c5cn6ccccc6[n+]5C)cc4)cc3)cc2)cn2ccccc21 | > 100 µM | 
65 | C\C(=N/N=C1/C(=C\N(C)C)C(=O)NC(=O)N1C)c1ccc(Cl)cc1 | > 100 µM | 
66 | O=c1cc(N2CCCC2)[nH]c(=O)n1-c1ccccc1 | > 100 µM | 
67 | O=c1cc(-c2ccccc2)oc2c(-c3cc(Cl)cc4c(=O)cc(-c5ccccc5)oc34)cc(Cl)cc12 | > 100 µM | 
68 | C=C1c2nc3ccccc3n2C=C(c2ccc(Cl)cc2)N1c1ccc(OC)cc1 | 18.7 µM | 
69 | COc1cc2c(cc1Cc1c(F)cccc1Cl)nc(-c1c(F)cccc1Cl)n2Cc1c(F)cccc1Cl | > 100 µM | 
70 | CC(C)(C)c1cc(C(=O)/C=C/c2ccc3c(c2)OCO3)cc(C(C)(C)C)c1O | 15.7 µM | 
